Experimental data from paper PMC10999543, “Identification of kinase modulators as host-directed therapeutics against intracellular methicillin-resistant Staphylococcus aureus” (Frontiers in Cellular and Infection Microbiology, 2024).
Read-outs that look alike come from different tables or passages of the source.

Key:
[1] = tested on: HeLa cells; experiment: Compound screen by flow cytometry: HeLa cell count as surrogate readout of cell viability (z-scoreHeLa); assay type: cell-based, human; conditions: for cell count rep 1 / z-scoreHeLa rep 1: replicate 1; for cell count rep 2 / z-scoreHeLa rep 2: replicate 2; for cell count rep 3 / z-scoreHeLa rep 3: replicate 3; for z-scoreHeLa mean: mean of 3 replicates
Description: (§1) The cells were resuspended in cell culture medium without antibiotics, seeded with 10,000 cells/well into Costar flat-bottom 96-well plates (Corning, Amsterdam, the Netherlands), and were incubated overnight at 37°C/5% CO2. The next day, the bacteria were centrifuged at ≥1800 g for 15 min and resuspended in cold PBS + 5 mM ethylenediaminetetraacetic acid (EDTA). The number of CFUs present in the bacterial suspension was estimated from the optical density at 600 nm (OD600) by assuming 8x10^8 CFUs to be present in a bacterial suspension with OD600 = 1, based on prior titrations. The bacterial suspension was diluted in cell culture medium without antibiotics and added to the cells. Accuracy of the multiplicity of infection (MOI) was validated by plating serial dilutions of the MRSA inoculums on Difco TS agar plates (BD Biosciences). The calculated mean MOI throughout all experiments was 6.8 ± 4.6 (mean ± SD). Infected cells were centrifuged for 3 min at 150 g and incubated for 1 hour at 37°C/5% CO2. Next, the cells were incubated with fresh cell culture medium supplemented with 30 µg/ml gentamicin sulphate (Lonza BioWhittaker, Basel, Switzerland) for 15 min at 37°C/5% CO2 to kill residual extracellular bacteria. Infected cells were incubated overnight at 37°C/5% CO2 in cell culture medium in the presence of kinase inhibitors and 5 µg/ml gentamicin sulphate-containing medium to prevent the growth of extracellular bacteria. The solvent of the compounds, DMSO, was used at equal % v/v as a negative control. For the screen, each compound was tested in triplicate, on separate cell culture plates, resulting in triplicate values for each kinase inhibitor.
(§2) HeLa cells were harvested by trypsinization and fixed with 1% paraformaldehyde. Samples were measured on a FACSLyric with HTS extension (BD Biosciences). Flow cytometry data were analysed using FlowJo version 10 (TreeStar, Ashland, OR, USA). HeLa cells positive for GFP were gated to calculate the percentage of MRSA-infected cells. The cell count was used as surrogate readout of cell viability.
To minimize the possibility that the presence of extreme values on a plate affected the z-scores, raw values that deviated two-fold from the negative controls were excluded when calculating plate means and standard deviations as used in the aforementioned formula. Compounds were considered a “hit” when z-scoreMRSA+ ≤ -2 and z-scoreHeLa ≥ -3 for cell count. In cases where compounds were screened twice, the average values were used to select hit compounds.

[2] = tested on: intracellular MRSA; assay type: cell-based, Staphylococcus aureus; conditions: for %GFP+ rep 1 / z-scoreMRSA+ rep 1: replicate 1; for %GFP+ rep 2 / z-scoreMRSA+ rep 2: replicate 2; for %GFP+ rep 3 / z-scoreMRSA+ rep 3: replicate 3; for z-scoreMRSA+ mean: mean of 3 replicates
Description: as §1, §2
To identify potential “hit” compounds, the flow cytometry data were used to calculate standard z-scores using z = (x-μ)/σ – zneg, where x is total event count or the percent of GFP-positive cells from a single well, μ is the mean from wells of the plate, σ is the standard deviation of the plate and zneg is the mean z-score of the negative control of the plate (i.e., DMSO) ([Korbee et al., 2018]). To minimize the possibility that the presence of extreme values on a plate affected the z-scores, raw values that deviated two-fold from the negative controls were excluded when calculating plate means and standard deviations as used in the aforementioned formula. Compounds were considered a “hit” when z-scoreMRSA+ ≤ -2 and z-scoreHeLa ≥ -3 for cell count. In cases where compounds were screened twice, the average values were used to select hit compounds.

[3] = PKIS compound screen raw data, HeLa cell count
[4] = PKIS compound screen, HeLa cell count
[5] = PKIS compound screen, Yes/No call
[6] = PKIS compound screen, Yes/No call on z-scoreHeLa
[7] = PKIS compounds raw data, HeLa cell count
[8] = PKIS compound screen raw data, MRSA-infected HeLa cells
[9] = PKIS compound screen, MRSA-infected HeLa cells
[10] = PKIS compound screen, Yes/No call (effect without cell death)
[11] = PKIS compound screen, Yes/No call on z-scoreMRSA+
[12] = PKIS compounds raw data, MRSA-infected HeLa cells
[13] = compound screen, HeLa cell count
[14] = Yes/No: effect without cell death
[15] = compound screen, MRSA-infected HeLa cells

Row | Structure (SMILES) | cell count rep 1 [1, 3] | cell count rep 2 [1, 3] | cell count rep 3 [1, 3] | z-scoreHeLa mean [1, 4] | z-scoreHeLa rep 1 [1, 4] | z-scoreHeLa rep 2 [1, 4] | z-scoreHeLa rep 3 [1, 4] | cell death [1, 6] | cell count rep 1 [1, 7] | cell count rep 2 [1, 7] | cell count rep 3 [1, 7] | %GFP+ rep 1 [2, 8] [%] | %GFP+ rep 2 [2, 8] [%] | %GFP+ rep 3 [2, 8] [%] | z-scoreMRSA+ mean [2, 9] | z-scoreMRSA+ rep 1 [2, 9] | z-scoreMRSA+ rep 2 [2, 9] | z-scoreMRSA+ rep 3 [2, 9] | hit [2, 10] | effect [2, 11] | further results
1 | Nc1ncc(-c2cccnc2)c2scc(-c3ccc4c(c3)CCN4C(=O)Cc3ccccc3)c12 [GSK683281A] | 22126 | 22399 | 35639 | -0.93 | 0.30 | -2.31 | -0.78 | No | 6640 | 6026 | 5637 | 18.3 | 19.8 | 19.8 | 0.18 | 0.14 | 0.38 | 0.00377 | No | No | cell death [1, 5]: No; z-scoreHeLa mean ([1]; PKIS compound screen): 0.13; z-scoreHeLa rep 1 ([1]; PKIS compound screen): 0.36; z-scoreHeLa rep 2 ([1]; PKIS compound screen): 0.0122; z-scoreHeLa rep 3 ([1]; PKIS compound screen): 0.0253; effect [2, 5]: No; z-scoreMRSA+ mean ([2]; PKIS compound screen): 0.38; z-scoreMRSA+ rep 1 ([2]; PKIS compound screen): 0.20; z-scoreMRSA+ rep 2 ([2]; PKIS compound screen): 0.70; z-scoreMRSA+ rep 3 ([2]; PKIS compound screen): 0.25; %GFP+ rep 1 [2, 12]: 28.1%; %GFP+ rep 2 [2, 12]: 29.7%; %GFP+ rep 3 [2, 12]: 28.6%
2 | CCn1cc(-c2ccnc3[nH]ccc23)c(-c2cccc(NC(=O)Nc3ccc(OCc4ccccc4)cc3)c2)n1 [GSK718429A] | – | – | – | – | – | – | – | – | 2721 | 2140 | 4945 | – | – | – | – | – | – | – | – | – | cell death ([1]; Yes/No call from z-scoreHeLa): No; z-scoreHeLa mean [1, 13]: -1.48; z-scoreHeLa rep 1 [1, 13]: -1.86; z-scoreHeLa rep 2 [1, 13]: -1.61; z-scoreHeLa rep 3 [1, 13]: -0.96; %GFP+ rep 1 [2, 12]: 12.6%; %GFP+ rep 2 [2, 12]: 13.0%; %GFP+ rep 3 [2, 12]: 13.2%; effect ([2]; Yes/No call from z-scoreMRSA+): No; hit [2, 14]: No; z-scoreMRSA+ mean [2, 15]: -0.38; z-scoreMRSA+ rep 1 [2, 15]: -0.18; z-scoreMRSA+ rep 2 [2, 15]: -0.17; z-scoreMRSA+ rep 3 [2, 15]: -0.79
3 | CCn1c(-c2nonc2N)nc2c(C#CC(C)(C)O)nc(OC[C@@H](N)c3ccccc3)cc21 [GSK938890A] | 14299 | 35410 | 42196 | -0.17 | -0.88 | 0.12 | 0.27 | No | – | – | – | 12.8 | 14.8 | 15.1 | -1.38 | -1.60 | -1.12 | -1.43 | No | No | –
4 | CCn1c(-c2nonc2N)nc2c(C#CC(C)(C)O)nc(OC[C@H](N)c3ccccc3)cc21 [GSK943949A] | 779 | 847 | 431 | – | – | – | – | – | – | – | – | 19.2 | 16.3 | 15.7 | – | – | – | – | – | – | cell death ([1]; Yes/No call from z-scoreHeLa): No; z-scoreHeLa mean [1, 13]: -2.76; z-scoreHeLa rep 1 [1, 13]: -2.58; z-scoreHeLa rep 2 [1, 13]: -2.66; z-scoreHeLa rep 3 [1, 13]: -3.04; effect ([2]; Yes/No call from z-scoreMRSA+): No; hit [2, 14]: No; z-scoreMRSA+ mean [2, 15]: -1.63; z-scoreMRSA+ rep 1 [2, 15]: -1.42; z-scoreMRSA+ rep 2 [2, 15]: -1.53; z-scoreMRSA+ rep 3 [2, 15]: -1.95
5 | CCn1c(-c2nonc2N)nc2c(C#CC(C)(C)O)nc(OCCNC)cc21 [GSK949675A] | – | – | – | – | – | – | – | – | 4918 | 5879 | 10520 | – | – | – | – | – | – | – | No | – | cell death [1, 5]: No; z-scoreHeLa mean ([1]; PKIS compound screen): 1.02; z-scoreHeLa rep 1 ([1]; PKIS compound screen): 0.13; z-scoreHeLa rep 2 ([1]; PKIS compound screen): 1.22; z-scoreHeLa rep 3 ([1]; PKIS compound screen): 1.70; effect [2, 5]: No; z-scoreMRSA+ mean ([2]; PKIS compound screen): 0.28; z-scoreMRSA+ rep 1 ([2]; PKIS compound screen): 0.59; z-scoreMRSA+ rep 2 ([2]; PKIS compound screen): 0.84; z-scoreMRSA+ rep 3 ([2]; PKIS compound screen): -0.59; %GFP+ rep 1 [2, 12]: 15.0%; %GFP+ rep 2 [2, 12]: 16.0%; %GFP+ rep 3 [2, 12]: 13.9%
6 | NS(=O)(=O)c1cccc(-c2cc3ccncc3cc2OCc2ccccc2)c1 [GSK980961A] | 14876 | 28602 | 41262 | -0.61 | -0.80 | -1.15 | 0.12 | No | – | – | – | 13.7 | 14.8 | 15.5 | -1.25 | -1.32 | -1.12 | -1.31 | No | No | –
7 | COc1cc2ncn(-c3cc(OCc4ccccc4C(F)(F)F)c(C(=O)N(C)C)s3)c2cc1OC [GSK1030062A] | 10049 | 31389 | 32107 | -1.17 | -1.53 | -0.63 | -1.34 | No | – | – | – | 17.3 | 19.4 | 19.3 | -0.02 | -0.18 | 0.26 | -0.15 | No | No | –
8 | c1ccc(-c2cc3ccncc3cc2OC2CCNCC2)cc1 [GSK1122999D] | 28278 | 18056 | 22119 | -0.31 | -0.33 | -1.24 | 0.62 | No | 8742 | 6353 | 6306 | 16.9 | 18.4 | 20.9 | -0.29 | -0.50 | -0.28 | -0.09 | No | No | cell death [1, 5]: No; z-scoreHeLa mean ([1]; PKIS compound screen): 0.77; z-scoreHeLa rep 1 ([1]; PKIS compound screen): 1.62; z-scoreHeLa rep 2 ([1]; PKIS compound screen): 0.23; z-scoreHeLa rep 3 ([1]; PKIS compound screen): 0.45; effect [2, 5]: No; z-scoreMRSA+ mean ([2]; PKIS compound screen): 0.55; z-scoreMRSA+ rep 1 ([2]; PKIS compound screen): 0.42; z-scoreMRSA+ rep 2 ([2]; PKIS compound screen): 0.40; z-scoreMRSA+ rep 3 ([2]; PKIS compound screen): 0.84; %GFP+ rep 1 [2, 12]: 29.2%; %GFP+ rep 2 [2, 12]: 28.1%; %GFP+ rep 3 [2, 12]: 31.8%
